Measured values published in ChEMBL document CHEMBL1127416, “GC sequence specific recognition by an N-formamido, C-terminus-modified and imidazole-containing analogue of netropsin” (J Med Chem, 1994).

Key:
Format in all cases: nucleic-acid assay
Nucleic Acid [1] = test: The binding constants against calf thymus DNA; conditions: Bos taurus
Nucleic Acid [2] = test: The binding constants against T4 coliphage DNA
Nucleic Acid [3] = test: The binding constants against poly(dA-dT) DNA
Nucleic Acid [4] = test: The binding constants against […] DNA

| SMILES | Ka (Nucleic Acid [1]) | Ka (Nucleic Acid [2]) | Ka (Nucleic Acid [3]) | Ka (Nucleic Acid [4]) |
| --- | --- | --- | --- | --- |
| CN(C)CCn1cc(NC(=O)c2nc(NC=O)cn2C)nc1C(N)=O | 137000 M⁻¹ | 19000 M⁻¹ | 65000 M⁻¹ | 105000 M⁻¹ |
| Cn1cc(NC(=O)c2cc(NC(=O)CNC(=N)N)cn2C)cc1C(=O)NCCC(=N)N | 1.87e+06 M⁻¹ |  |  |  |
